Values of other authors in paper PMC4340357 (Journal of Chemical Information and Modeling, 2015).

Target: C. perfringens neuraminidase
Details: read-out: IC50 against C. perfringens neuraminidase

CC(C)=CCc1c(O)c(CC=C(C)C)c2oc3c(O)ccc(O)c3c(=O)c2c1O [Gartanin]
IC50: 2900 ± 300 nM
